Data on two compounds can be found in patent publication US4004028A, “Phenoxypropanolamines” (SmithKline Corporation, priority 1975, dated 1977).

Assay [1] has as its system guinea pig tracheal chain preparations. In words: effect on spontaneous tone of guinea pig tracheal chain (ring) preparations, β-stimulant direct relaxant effect on airway smooth muscle. The format is cell-based. Conditions: for absolute separation ratio: atrial ED25 versus tracheal ED50, in vitro guinea pig preparations. From the text: (§1) Two in vitro test systems used for determining selective β-stimulant activity are: (1) effect on spontaneous tone of guinea pig tracheal chain preparations as a measure of β-stimulant (direct relaxant) effect on airway smooth muscle, and (2) effect on rate of spontaneously beating right atria of the guinea pig as a measure of β-stimulant effect on cardiac muscle.

The subject of assay [2] is guinea pig right atria. In words: effect on rate of spontaneously beating right atria of the guinea pig, β-stimulant effect on cardiac muscle. The class given is cell-based. Conditions: Cavia porcellus, in vitro, read-out: ED25, increasing the rate of contraction of guinea pig right atria.
Text: as §1

In brackets after ≈: the same amount, converted by molar mass.

Regarding `CC(C)(C)NCC(O)COc1ccc(O)c(NS(C)(=O)=O)c1` (centres unmarked) [3-(4-hydroxy-3-methanesulfonamidophenoxy)-1-(tert-butylamino)-2-propanol], the EC50 in assay [1] (Cavia porcellus, in vitro, guinea pig tracheal ring preparation, read-out: ED50, relaxes the spontaneous tone of guinea pig tracheal ring preparation) is 0.00219 mg/L (≈ 0.00659 µM). Besides, the absolute separation ratio in assay [1] was found to be 186. Further, the “fold improvement of absolute separation ratio compared to d, l-isoproterenol” value in assay [1] (relative to d, l-isoproterenol (absolute separation ratio = 0.5)) was found to be 372 fold. For the same compound, the EC25 in assay [2] amounted to 0.409 mg/L (≈ 1.23 µM).
For the compound `CC(C)NCC(O)c1ccc(O)c(O)c1` (stereo not drawn) [d, l-isoproterenol, reference compound], the absolute separation ratio in assay [1] is on record as 0.5.
